This note sets out measurements from patent US20240228489A1, “POSITIVE ALLOSTERIC MODULATORS OF THE MUSCARINIC ACETYLCHOLINE RECEPTOR M1” (Vanderbilt University, priority 2021, published 2024).

The target of assay [1] is T1, human mAChR M1 (Homo sapiens, UniProt P11229).
T1 sequence (P11229 1-460): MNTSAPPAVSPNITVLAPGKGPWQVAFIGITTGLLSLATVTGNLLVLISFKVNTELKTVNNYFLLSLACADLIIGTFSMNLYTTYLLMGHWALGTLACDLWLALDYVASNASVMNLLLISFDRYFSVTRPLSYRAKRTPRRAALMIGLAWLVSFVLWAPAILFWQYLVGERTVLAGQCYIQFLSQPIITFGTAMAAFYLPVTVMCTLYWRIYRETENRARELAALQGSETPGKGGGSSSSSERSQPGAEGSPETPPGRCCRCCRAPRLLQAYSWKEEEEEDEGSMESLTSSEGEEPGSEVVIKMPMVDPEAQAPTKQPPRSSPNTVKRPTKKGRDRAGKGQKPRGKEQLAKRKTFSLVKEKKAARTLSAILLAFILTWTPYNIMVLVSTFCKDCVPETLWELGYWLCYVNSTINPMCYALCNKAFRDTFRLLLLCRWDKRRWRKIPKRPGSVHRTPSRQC
The assay is described as follows: mAChR M1 cell-based functional assay (calcium mobilization), PAM mode: increase in the EC20 acetylcholine response. The gist of the method:
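CHO-K1 cells stably expressing hM1, Fluo-4 loaded, read by FDSS calcium flux at 1 Hz. Compound (11-point 1:3 CRC) added at 4 s, EC20 acetylcholine at 144 s, EC80 at 230 s. PAM activity taken as concentration-dependent increase in EC20 ACh response, fitted by four-parameter logistic for EC50/Emax.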
For orientation: Calcium flux is commonly read through the fluorescence of an indicator in the cells.

The target of assay [2] is T1, human mAChR M1. Kind of assay: mAChR M1 cell-based functional assay (calcium mobilization), agonist mode: compound alone, Emax relative to acetylcholine maximum. The note with it: for Agonist Activity Human M1 EC50 / EC50: human mAChR M1; for Emax: relative to the maximum for acetylcholine. The gist of the method:
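CHO-K1 cells stably expressing hM1 were loaded with Fluo-4 AM, and calcium flux was read as fluorescence ratio. Compound was added alone from an 11-point 1:3 curve, and the agonist response was fitted with a four-parameter logistic. Emax is expressed relative to the acetylcholine maximum.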

For orientation: EC50 means the concentration giving half of the maximal effect. The term Emax denotes the maximal effect, on the per cent scale that the assay sets. With `[2H]C1([2H])c2ncccc2C(=O)N1Cc1c(F)cc(-c2cccc3nn(C)cc23)cc1C(F)(F)F` [Compound 225, 6-(2-fluoro-4-(2-methyl-2H-indazol-4-yl)-6-(trifluoromethyl)benzyl)-6,7-dihydro-5H-pyrrolo[3,4-b]pyridin-5-one-7,7-d2], on human mAChR M1 [1], the EC50 was determined as 1370 nM and the Emax worked out at 58%. On human mAChR M1 [2], the “Agonist Activity Human M1 EC50” value is on record as “Inactive” and the Emax amounted to 3%.

Consider `[2H]C1([2H])c2ncccc2C(=O)N1Cc1ccc(-c2ccc(OCC3CCO3)c3nn(C)cc23)cc1F` (stereo not drawn) [Compound 145, 6-(2-fluoro-4-(2-methyl-7-(oxetan-2-ylmethoxy)-2H-indazol-4-yl)benzyl)-6,7-dihydro-5H-pyrrolo[3,4-b]pyridin-5-one-7,7-d2], for which, on human mAChR M1 [1], the EC50 came to 1070 nM and the Emax is 73%. In addition, at human mAChR M1 [2], the EC50 is not below 10000 nM and the Emax was determined as 16%.

`[2H]C1([2H])c2ncccc2C(=O)N1Cc1c(F)cc(-c2cc(F)c(F)c3c2cnn3C([2H])([2H])[2H])cc1F` [Compound 252, 6-(4-(6,7-difluoro-1-(methyl-d3)-1H-indazol-4-yl)-2,6-difluorobenzyl)-6,7-dihydro-5H-pyrrolo[3,4-b]pyridin-5-one-7,7-d2]: on human mAChR M1 [1], the 50% effective concentration (EC50) is more than 10000 nM and the Emax worked out at 15%. For the same compound, at human mAChR M1 [2], the “Agonist Activity Human M1 EC50” value was “Inactive” and the Emax is 2%.

For the compound `[2H]C1([2H])c2ncccc2C(=O)N1Cc1c(F)cc(-c2ccc(OCSC)c3nn(C)cc23)cc1F` [Compound 185, 6-(2,6-difluoro-4-(2-methyl-7-((methylthio)methoxy)-2H-indazol-4-yl)benzyl)-6,7-dihydro-5H-pyrrolo[3,4-b]pyridin-5-one-7,7-d2], at human mAChR M1 [1], the EC50 is 722 nM and the Emax was found to be 74%. Also, at human mAChR M1 [2], the “Agonist Activity Human M1 EC50” value was “Inactive” and the Emax was determined as 6%.

On to `[2H]C1([2H])c2ncccc2C(=O)N1Cc1c(F)cc(-c2ccnc3nn(C)cc23)cc1C1CC1` [Compound 208, 6-(2-cyclopropyl-6-fluoro-4-(2-methyl-2H-pyrazolo[3,4-b]pyridin-4-yl)benzyl)-6,7-dihydro-5H-pyrrolo[3,4-b]pyridin-5-one-7,7-d2], for which the 50% effective concentration (EC50) on human mAChR M1 [1] stood at 140 nM; at human mAChR M1 [2] it was 1200 nM. Besides, the Emax stood at 88% on human mAChR M1 [1] and 59% at human mAChR M1 [2].

On to `[2H]C1([2H])c2ncccc2C(=O)N1Cc1ccc(-c2cc(F)cc3nn(C)cc23)cc1` [Compound 72, 6-(4-(6-fluoro-2-methyl-2H-indazol-4-yl)benzyl)-6,7-dihydro-5H-pyrrolo[3,4-b]pyridin-5-one-7,7-d2], for which, on human mAChR M1 [1], the half-maximal effective concentration (EC50) came to 472 nM and the Emax came to 75%. Moreover, on human mAChR M1 [2], the “Agonist Activity Human M1 EC50” value is on record as “Inactive” and the maximal effect (Emax) was 4%.

Take `[2H]C1([2H])c2ncccc2C(=O)N1Cc1c(F)cc(-c2ccc(F)c3nn(C)cc23)cc1OCC(C)C` [Compound 214, 6-(2-fluoro-4-(7-fluoro-2-methyl-2H-indazol-4-yl)-6-isobutoxybenzyl)-6,7-dihydro-5H-pyrrolo[3,4-b]pyridin-5-one-7,7-d2]: at human mAChR M1 [1], the EC50 is 1290 nM and the Emax was 79%. On human mAChR M1 [2], the “Agonist Activity Human M1 EC50” value is recorded as “Inactive” and the Emax is 2%.

Regarding `[2H]C1([2H])c2ncccc2C(=O)N1Cc1c(F)cc(-c2ccc(F)c3nn(C)cc23)cc1Cl` [Compound 164, 6-(2-chloro-6-fluoro-4-(7-fluoro-2-methyl-2H-indazol-4-yl)benzyl)-6,7-dihydro-5H-pyrrolo[3,4-b]pyridin-5-one-7,7-d2], at human mAChR M1 [1], the concentration for a half-maximal effect (EC50) is 476 nM and the Emax stood at 82%. Also, at human mAChR M1 [2], the “Agonist Activity Human M1 EC50” value is “Inactive” and the maximum response (Emax) stood at 3%.

As to `[2H]C1([2H])c2ncccc2C(=O)N1Cc1ccc(-c2cccc3nn(C)cc23)cc1` [Compound 11, 6-(4-(2-methyl-2H-indazol-4-yl)benzyl)-6,7-dihydro-5H-pyrrolo[3,4-b]pyridin-5-one-7,7-d2], on human mAChR M1 [1], the EC50 came out at 1300 nM and the Emax stood at 77%. Moreover, at human mAChR M1 [2], the “Agonist Activity Human M1 EC50” value is “Inactive” and the Emax came to 6%.

For `[2H]C1([2H])c2ncc(O)cc2C(=O)N1Cc1c(F)cc(-c2cccc3nn(C)cc23)cc1F` [Compound 62, 6-(2,6-Difluoro-4-(2-methyl-2H-indazol-4-yl)benzyl)-3-hydroxy-6,7-dihydro-5H-pyrrolo[3,4-b]pyridin-5-one-7,7-d2], the EC50 at human mAChR M1 [1] was 108 nM; at human mAChR M1 [2], 4340 nM. Also, the results for the maximal effect (Emax) at human mAChR M1 [1] and on human mAChR M1 [2] were 67% and 57%, respectively.

Consider `[2H]C1([2H])c2ncccc2C(=O)N1Cc1c(F)cc(-c2cccc3nn(C(F)F)cc23)cc1F` [Compound 50, 6-(4-(2-(difluoromethyl)-2H-indazol-4-yl)-2,6-difluorobenzyl)-6,7-dihydro-5H-pyrrolo[3,4-b]pyridin-5-one-7,7-d2], for which, on human mAChR M1 [1], the EC50 came to 332 nM and the Emax came to 85%. At human mAChR M1 [2], the “Agonist Activity Human M1 EC50” value is listed as “Inactive” and the Emax was 4%.

Turning to `[2H]C1([2H])c2ncccc2C(=O)N1Cc1c(F)cc(-c2ccc(C)c3nn(C)cc23)cc1OCC(C)C` [Compound 213, 6-(4-(2,7-dimethyl-2H-indazol-4-yl)-2-fluoro-6-isobutoxybenzyl)-6,7-dihydro-5H-pyrrolo[3,4-b]pyridin-5-one-7,7-d2], at human mAChR M1 [1], the EC50 is 1520 nM and the Emax is 81%. Further, at human mAChR M1 [2], the “Agonist Activity Human M1 EC50” value is “Inactive” and the Emax amounted to 3%.

As to `[2H]C1([2H])c2ncccc2C(=O)N1Cc1c(F)cc(-c2cn(C)c(=O)c3c2cnn3C)cc1F` [Compound 80, 4-(3,5-difluoro-4-((5-oxo-5,7-dihydro-6H-pyrrolo[3,4-b]pyridin-6-yl-7,7-d2)methyl)phenyl)-1,6-dimethyl-1,6-dihydro-7H-pyrazolo[3,4-c]pyridin-7-one], on human mAChR M1 [1], the EC50 stood at 2230 nM and the maximal response (Emax) stood at 59%. Further, at human mAChR M1 [2], the “Agonist Activity Human M1 EC50” value is “Inactive” and the Emax is 1%.

Regarding `[2H]C1([2H])c2ncccc2C(=O)N1Cc1ccc(-c2ccc3c(cnn3C)c2)cc1` [Compound 237, 6-(4-(1-methyl-1H-indazol-5-yl)benzyl)-6,7-dihydro-5H-pyrrolo[3,4-b]pyridin-5-one-7,7-d2], on human mAChR M1 [1], the 50% effective concentration (EC50) is more than 10000 nM and the Emax came out at 47%. Besides, on human mAChR M1 [2], the “Agonist Activity Human M1 EC50” value is “Inactive” and the Emax was determined as 2%.

As for `[2H]C1([2H])c2ncccc2C(=O)N1Cc1ccc(-c2ccc(OC)c3nn(C([2H])([2H])[2H])cc23)cc1C` [Compound 57, 6-(4-(7-methoxy-2-(methyl-d3)-2H-indazol-4-yl)-2-methylbenzyl)-6,7-dihydro-5H-pyrrolo[3,4-b]pyridin-5-one-7,7-d2], on human mAChR M1 [1], the EC50 worked out at 288 nM and the maximal effect (Emax) amounted to 87%. For the same compound, on human mAChR M1 [2], the “Agonist Activity Human M1 EC50” value was “Inactive” and the Emax is 4%.

With `[2H]C1([2H])c2ncccc2C(=O)N1Cc1c(F)cc(-c2cccc3nn(C4COC4)cc23)cc1F` [Compound 49, 6-(2,6-difluoro-4-(2-(oxetan-3-yl)-2H-indazol-4-yl)benzyl)-6,7-dihydro-5H-pyrrolo[3,4-b]pyridin-5-one-7,7-d2], on human mAChR M1 [1], the EC50 stood at 848 nM and the Emax worked out at 80%. Further, on human mAChR M1 [2], the “Agonist Activity Human M1 EC50” value is given as “Inactive” and the Emax was determined as 2%.

Take `[2H]C([2H])([2H])Oc1cnc2c(c1)C(=O)N(Cc1ccc(-c3cccc4nn(C)cc34)cc1F)C2([2H])[2H]` [Compound 82, 6-(2-fluoro-4-(2-methyl-2H-indazol-4-yl)benzyl)-3-(methoxy-d3)-6,7-dihydro-5H-pyrrolo[3,4-b]pyridin-5-one-7,7-d2]: the EC50 on human mAChR M1 [1] worked out at 120 nM; on human mAChR M1 [2], 4930 nM. Also, the Emax stood at 79% at human mAChR M1 [1] and 25% at human mAChR M1 [2].

Take `[2H]C1([2H])c2ncccc2C(=O)N1Cc1c(Cl)cc(-c2cccc3nn(C)cc23)cc1Cl` [Compound 227, 6-(2,6-dichloro-4-(2-methyl-2H-indazol-4-yl)benzyl)-6,7-dihydro-5H-pyrrolo[3,4-b]pyridin-5-one-7,7-d2]: at human mAChR M1 [1], the EC50 stood at 900 nM and the Emax came to 63%. Further, at human mAChR M1 [2], the “Agonist Activity Human M1 EC50” value is reported as “Inactive” and the Emax worked out at 1%.
